Several values for one entry are separate records, joined by “and”; a condition that tells them apart may be missing. Equal entries are not always repeated. ± gives the standard deviation of the averaged measurements.
Tests used:
HCI-008 = organoid from a HER2-enriched breast cancer xenograft; assay: CTG-3D luminescence at 96 h relative to day-0 seeding control (ratio to day 0); higher = more growth / less cytotoxicity; PDxO 3D drug screen (set 2), 96 h, CTG-3D normalised to day-0 seeding control.
HCI-012 = organoid from a breast cancer xenograft; assay: as above
HCI-023 = organoid from a triple-negative breast cancer xenograft; assay: as above
MDA-MB-231 = assay: as above
HCI-019 [1] = organoid from a triple-negative breast cancer xenograft; assay: as above
HCI-019 [2] = assay: CTG-3D luminescence at 96 h relative to day-0 seeding control (ratio to day 0); higher = more growth / less cytotoxicity; PDxO 3D drug screen, 96 h, CTG-3D normalised to day-0 seeding control.

C[C@@H](Nc1cc(F)cc(F)c1)c1cc(C(=O)N(C)C)cc2c(=O)cc(N3CCOCC3)oc12 [AZD-8186]
CTG-3D luminescence at 96 h
Conditions	12.5 pM	0.00025 µM	0.005 µM	0.1 µM	1 µM	10 µM	100 µM	625 fM
HCI-008, days in culture: 325	1.16	2.3	1.7	3.47	3.65	1.03	0.315	1.35
HCI-008, days in culture: 340	1.72	2.42	1.8	1.21	1.62	–	0.345	1.48
HCI-008, days in culture: 354	1.26	1.28	1.82	1.24	1.26	0.634	0.353	1.32
HCI-008, days in culture: 382	1.77	1.86	1.54	1.44	1.16	0.995	0.193	1.86
HCI-012, days in culture: 214	3.16	3.58	2.36	2.15	1.61	1.53	0.299	3
HCI-012, days in culture: 243	1.81	2.44	1.8	2.35	1.56	1.4	0.468	2.52
HCI-012, days in culture: 256	2.2	2.24	2.12	3.26	1.35	0.936	0.409	2.45
HCI-012, days in culture: 284	1.94	2.57	2.11	2.5	1.45	2.64	0.535	2.65
HCI-019 [1], days in culture: 173	3.42	1.4	1.36	2.98	2.28	0.532	0.37	1.05
HCI-019 [1], days in culture: 194	1.94	1.36	1.46	2.1	1.87	1.3	0.367	1.03
HCI-019 [1], days in culture: 215	1.9	1.48	0.854	1.62	0.82	1.39	0.374	1.8
HCI-023, days in culture: 223	1.94	2.6	1.75	1.98	1.44	1.93	1.14	1.74
HCI-023, days in culture: 238	1.54	1.51	1.31	1.41	1.7	1.3	1.05	1.54
HCI-023, days in culture: 252	2.12	1.88	1.63	1.81	1.91	2.09	1.5	1.99

MDA-MB-231
Conditions	CTG-3D luminescence at 96 h
12.5 pM	5.61 and 5.06
0.00025 µM	5.71 and 5.14
0.005 µM	5.56 and 5.16
0.1 µM	5.39 and 4.98
1 µM	5.11 and 4.76
10 µM	4.68 and 4.38
100 µM	2.77 and 2.47
625 fM	5.47 and 5.15

CCOc1ccn(-c2ccc(F)cc2)c(=O)c1C(=O)Nc1ccc(Oc2ccnc(N)c2Cl)c(F)c1 [ASLAN002]
CTG-3D luminescence at 96 h
Conditions	12.5 pM	0.00025 µM	0.005 µM	0.1 µM	1 µM	10 µM	100 µM	625 fM
HCI-008, days in culture: 325	1.03	2.2	2.46	3.53	3.54	2.48	1.08	2.16
HCI-008, days in culture: 340	0.543	2.27	1.52	1.76	1.83	–	0.867	0.758
HCI-008, days in culture: 354	1.38	1.4	2.81	1.45	1.54	0.917	0.857	1.08
HCI-008, days in culture: 382	1.45	1.54	1.29	1.09	0.767	1.78	0.377	1.52
HCI-012, days in culture: 214	1.99	2.84	1.41	1.72	1.55	2.81	0.653	2.47
HCI-012, days in culture: 243	1.95	2.84	1.9	2.45	2.19	3.71	1.7	2.43
HCI-012, days in culture: 256	1.93	1.9	1.8	2.77	1.71	1.78	1.29	2.4
HCI-012, days in culture: 284	1.86	2.58	1.82	2.49	2.18	2.98	1.4	2.81
HCI-019 [1], days in culture: 173	2.03	1.61	1.52	3.51	1.6	1.16	1.12	1.28
HCI-019 [1], days in culture: 194	1.11	1.59	0.978	1.46	0.851	0.875	1.1	1.75
HCI-019 [1], days in culture: 215	1.3	0.756	1.22	1.28	2.09	0.724	0.591	1.91
HCI-023, days in culture: 223	1.5	2.83	1.7	2.8	1.5	1.49	1.03	1.61
HCI-023, days in culture: 238	1.66	1.62	1.17	1.42	1.76	1.05	0.917	1.58
HCI-023, days in culture: 252	1.99	1.93	1.78	2.01	2.08	1.47	1.15	2.04

MDA-MB-231
Conditions	CTG-3D luminescence at 96 h
12.5 pM	5.15 ± 2.7
0.00025 µM	5.18 ± 2.6
0.005 µM	5.26 ± 2.7
0.1 µM	5.15 ± 2.2
1 µM	5.49 ± 2.8
10 µM	4.89 ± 2
100 µM	3.8 ± 1.8
625 fM	5.36 ± 2.8

CO[C@H]1C[C@@H]2CC[C@@H](C)[C@@](O)(O2)C(=O)C(=O)N2CCCC[C@H]2C(=O)O[C@H]([C@H](C)C[C@@H]2CC[C@@H](OCCO)[C@H](OC)C2)CC(=O)[C@H](C)/C=C(\C)[C@@H](O)[C@@H](OC)C(=O)[C@H](C)C[C@H](C)/C=C/C=C/C=C/1C [everolimus]
CTG-3D luminescence at 96 h
Conditions	12.5 pM	0.00025 µM	0.005 µM	0.1 µM	1 µM	10 µM	100 µM	625 fM
HCI-008, days in culture: 325	0.998	1.62	1.03	2.85	2.2	1.15	-0.00335	1.28
HCI-008, days in culture: 340	1.1	1.26	1.65	0.457	1.04	–	-0.000653	1.09
HCI-008, days in culture: 354	1.49	0.714	2.05	0.859	0.973	0.697	-0.00248	0.841
HCI-008, days in culture: 382	1.54	1.42	1.04	1.1	0.451	0.406	-0.000828	1.26
HCI-012, days in culture: 214	2.76	1.49	1.21	1.84	1.41	1.69	-0.000454	2.25
HCI-012, days in culture: 243	1.34	2.16	1.46	1.87	1.38	2.11	-0.000228	1.9
HCI-012, days in culture: 256	2.03	1.8	1.71	2.19	1.42	1.38	-0.00358	1.92
HCI-012, days in culture: 284	1.39	1.69	1.18	1.72	0.508	0.327	-0.00211	2.6
HCI-019 [1], days in culture: 173	1.57	1.31	1.21	1.38	1.1	0.954	0.000122	1.63
HCI-019 [1], days in culture: 194	1.27	0.886	1.15	1.13	1.33	0.725	-0.00106	1.7
HCI-019 [1], days in culture: 215	0.96	0.554	0.902	0.622	0.482	0.326	0.000571	1.76
HCI-023, days in culture: 223	2.04	1.82	1.17	1.19	0.991	1.28	-0.00123	1.43
HCI-023, days in culture: 238	1.22	1.01	1	1.23	1.61	0.915	-0.00183	1.32
HCI-023, days in culture: 252	1.97	1.75	1.51	1.44	1.55	1.91	-0.00273	1.89

MDA-MB-231
Conditions	CTG-3D luminescence at 96 h
12.5 pM	5.2 and 4.8
0.00025 µM	5.04 and 4.75
0.005 µM	4.83 and 4.91
0.1 µM	4.27 and 4.36
1 µM	3.79 and 3.62
10 µM	3.5 and 2.66
100 µM	-0.00539 and -0.00564
625 fM	5.28 and 4.71

CO[C@H]1C[C@@H]2CC[C@@H](C)[C@@](O)(O2)C(=O)C(=O)N2CCCC[C@H]2C(=O)O[C@H]([C@H](C)C[C@@H]2CC[C@@H](O)[C@H](OC)C2)CC(=O)[C@H](C)/C=C(\C)[C@@H](O)[C@@H](OC)C(=O)[C@H](C)C[C@H](C)/C=C/C=C/C=C/1C [rapamycin]
CTG-3D luminescence at 96 h
Conditions	12.5 pM	0.00025 µM	0.005 µM	0.1 µM	1 µM	10 µM	100 µM	625 fM
HCI-008, days in culture: 325	1.02	2.07	1.15	1.85	1.96	1.63	0.0243	1.04
HCI-008, days in culture: 340	0.377	2.04	1.44	0.883	1.17	–	0.0122	0.721
HCI-008, days in culture: 354	1.17	0.924	1.28	0.845	0.613	1.04	0.0113	0.658
HCI-008, days in culture: 382	1.67	1.28	0.869	1.12	0.658	1.06	0.0068	1.24
HCI-012, days in culture: 214	2.2	1.93	1.66	1.12	1.43	1.48	0.0123	1.33
HCI-012, days in culture: 243	1.69	1.66	1.47	1.74	1.31	1.75	0.0176	1.93
HCI-012, days in culture: 256	2.19	1.95	1.54	1.81	1.91	1.19	0.0101	2.38
HCI-012, days in culture: 284	1.84	2.05	1.19	1.44	1.29	1.76	0.0121	3.62
HCI-019 [1], days in culture: 173	1.07	0.905	0.844	1.93	1.36	1.43	0.0117	1.08
HCI-019 [1], days in culture: 194	1.66	1.04	1.1	0.588	1.28	1.54	0.0107	2.69
HCI-019 [1], days in culture: 215	1.12	0.5	0.486	1.15	0.713	0.457	0.00468	1.43
HCI-023, days in culture: 223	1.62	1.63	1.09	1.99	0.95	1.49	0.0136	2.02
HCI-023, days in culture: 238	1.36	1.16	0.919	1.42	1.46	1.5	0.0105	1.26
HCI-023, days in culture: 252	1.76	1.4	1.31	1.72	1.32	1.8	0.00661	1.58

MDA-MB-231
Conditions	CTG-3D luminescence at 96 h
12.5 pM	4.67 ± 2.1
0.00025 µM	4.8 ± 2.1
0.005 µM	4.88 ± 2.4
0.1 µM	4.66 ± 1.8
1 µM	4.92 ± 2.4
10 µM	4.59 ± 1.8
100 µM	0.0454 ± 0.021

CC1(C)CCC(c2ccc(Cl)cc2)=C(CN2CCN(c3ccc(C(=O)NS(=O)(=O)c4ccc(N[C@H](CCN5CCOCC5)CSc5ccccc5)c(S(=O)(=O)C(F)(F)F)c4)cc3)CC2)C1 [navitoclax]
CTG-3D luminescence at 96 h, HCI-019 [2]
Conditions	12.5 pM	0.00025 µM	0.005 µM	0.1 µM	1 µM	10 µM	100 µM	625 fM
days in culture: 110	1.8	1.8	1.56	1.84	0.469	0.538	0.0111	2.31
days in culture: 131	2.39	3.6	3.23	2.91	1.25	0.358	0.0147	3.96
days in culture: 152	2.86	2.49	3.21	1.89	0.769	0.582	0.00119	2.39

CCN(c1cc(C#CCN2CCOCC2)cc(C(=O)NCc2c(C)cc(C)[nH]c2=O)c1C)[C@H]1CC[C@H](N(C)CCOC)CC1
CTG-3D luminescence at 96 h, HCI-019 [2]
Conditions	12.5 pM	0.00025 µM	0.005 µM	0.1 µM	1 µM	10 µM	100 µM	625 fM
days in culture: 110	2.05	1.49	1.58	2.08	1.81	2.75	2.01	2.28
days in culture: 131	2.63	3.96	3.07	3.21	1.98	2.33	0.501	3.23
days in culture: 152	2.5	4.04	2.16	1.89	2.77	1.9	0.188	2.36

From the supplement of paper PMC8882468
